Experiment [1] addresses T1, Epoxide hydrolase 1 (Rattus norvegicus) (UniProt P07687).
T1 sequence (whole entry): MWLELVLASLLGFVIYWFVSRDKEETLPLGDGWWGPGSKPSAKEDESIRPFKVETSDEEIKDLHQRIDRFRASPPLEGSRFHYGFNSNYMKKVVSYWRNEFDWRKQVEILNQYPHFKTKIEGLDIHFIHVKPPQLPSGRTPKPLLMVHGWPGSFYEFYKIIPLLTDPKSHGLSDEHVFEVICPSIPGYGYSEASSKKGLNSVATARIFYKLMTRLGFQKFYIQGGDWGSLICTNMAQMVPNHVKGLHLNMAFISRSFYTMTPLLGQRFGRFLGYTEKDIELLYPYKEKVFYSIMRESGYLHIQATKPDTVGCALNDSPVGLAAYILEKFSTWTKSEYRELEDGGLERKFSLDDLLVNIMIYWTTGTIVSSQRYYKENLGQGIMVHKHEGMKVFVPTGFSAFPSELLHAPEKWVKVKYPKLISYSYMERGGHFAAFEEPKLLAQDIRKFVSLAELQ
Description: Percent Enantiomeric composition (S,S) of trans-Dihydrodiol formed by Microsomal Epoxide Hydrolase from rat liver at 50 mM Tris-HCl buffer, pH 8.4 at 37 degrees C.

In experiment [2] the target is T1, Epoxide hydrolase 1 (Rattus norvegicus). Description: Percent Enantiomeric composition (R,R) of trans-Dihydrodiol formed by Microsomal Epoxide Hydrolase from rat liver at 50 mM Tris-HCl buffer, pH 8.4 at 37 degrees C.
Experiment [3] concerns the target Epoxide hydrolase 1 (Oryctolagus cuniculus) (UniProt P04068). Description: Percent Enantiomeric composition (S,S) of trans-Dihydrodiol formed by Microsomal Epoxide Hydrolase from rabbit liver microsomes. On the technique in general: Liver microsomes are vesicles of endoplasmic reticulum, rich in cytochrome P450 enzymes.
Experiment [4] has the same target. Description: Percent Enantiomeric composition (R,R) of trans-Dihydrodiol formed by Microsomal Epoxide Hydrolase from rabbit liver microsomes.

Structures are written as SMILES.

Chain of Epoxide hydrolase 1 (Oryctolagus cuniculus) (P04068 whole entry, looked up): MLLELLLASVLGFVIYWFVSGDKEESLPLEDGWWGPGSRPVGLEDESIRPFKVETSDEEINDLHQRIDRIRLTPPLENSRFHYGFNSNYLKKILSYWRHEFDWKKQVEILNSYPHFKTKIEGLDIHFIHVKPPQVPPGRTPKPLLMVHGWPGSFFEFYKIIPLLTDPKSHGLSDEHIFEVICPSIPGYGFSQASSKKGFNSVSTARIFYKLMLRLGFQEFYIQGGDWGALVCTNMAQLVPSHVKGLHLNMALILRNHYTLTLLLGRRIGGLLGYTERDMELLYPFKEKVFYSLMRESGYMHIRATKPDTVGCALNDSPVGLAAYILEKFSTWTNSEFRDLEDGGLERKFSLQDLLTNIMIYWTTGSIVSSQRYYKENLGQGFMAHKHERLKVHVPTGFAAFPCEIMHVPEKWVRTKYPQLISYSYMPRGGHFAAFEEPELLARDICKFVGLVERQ

As for `c1ccc2c(c1)-c1ccccc1C1OC21` (stereo not drawn), the Enantiomeric composition in experiment [1] turned out to be 58%; in experiment [2], 42%.
On the same counts, the results for `c1ccc2c(c1)c1cccc3c1c1c(cccc21)C1OC31` (stereo not drawn) are 17% and 83%.
For the compound `c1cc2c3c(c1)ccc1cccc(c13)C1OC21` (stereo not drawn), the values for the Enantiomeric composition in experiment [1] and in experiment [2] were 14% and 86%, respectively.
Take `C1=CC2OC2C=C1` (stereo not drawn): the Enantiomeric composition is 18% in experiment [3] and 82% in experiment [4].

Values taken from ChEMBL document CHEMBL1150558, “Enantiomeric Composition of Trans-Dihydrodiols Formed from Meso-K-Region Arene Oxides by Microsomal Epoxide Hydrolase” (Bioorg Med Chem Lett, 1992).
